In patent US20250313653A1, “GUEST/HOST INCLUSION COMPLEXES CONTAINING S-NITROSOGLUTATHIONE AND METHODS OF USE THEREOF” (VIRGINIA COMMONWEALTH UNIVERSITY, priority 2022, published 2025):
Values joined by “and” are separate entries in the source; they are usually repeats but may differ in a detail not shown here. Equal entries are not always repeated. “Also recorded” adds a separate entry of the source.

Columns and labels:
[1] = GSNO thermal decomposition via UV-Vis absorption spectroscopy; assay type: physicochemical; conditions: for stabilization effect on GSNO (remaining GSNO after 48 h): 2-day experiment, 0.05 M GSNO in 0.05 M PB with 0.1 M CD derivative, dark, 37° C.; for order of enhancement of GSNO stability (reduced decomposition reactivity) by the host CD: 0.1 M GSNO solution containing 0.1 M CD, pH 7.4, 37° C.
Description: GSNO was synthesized by nitrosation of reduced L-glutathione in acidified nitrite as previously reported.^52 After collecting GSNO precipitates and washing them using cold water and acetone, GSNO powder was vacuum dried for 4 h and stored at −20° C. GSNO powders were dissolved in phosphate buffer (PB) containing the same mole of Na2HPO4 before the pH adjustment. For example, the formal concentration of Na2HPO4 is 0.1 M when the GSNO concentration is 0.1 M. One hundred μM EDTA was always added to each solution before the solution pH was finally adjusted to 7.4 via NaOH. EDTA is a chelating agent to mask Cu^2+, a S-nitrosothiol catalyst that may exist in solvents and chemicals as an impurity.^53 For solutions with reactive agents, BSA, ascorbic acid, or cysteine was added before the pH adjustment. To prepare GSNO-CD solutions, appropriate amounts of CD powders were dissolved into the GSNO solutions prior to the pH adjustment.
Aqueous GSNO solutions were contained in 1.5 mL disposable polystyrene cuvettes. The cuvette was caped and further sealed with parafilm. The concentrations of GSNO during storage at 37° C. or 25° C. in the dark were monitored by a UV-vis spectrophotometer (Go Direct® Fluorescence/UV-VIS Spectrophotometer) at a wavelength of 545 nm. A 4 W LED white light was used as the light source for the photodecomposition experiment at room temperature. The distance between the light source and the cuvettes was approximately 10 cm. All GSNO decomposition experiments were triplicated, and the GSNO concentration was expressed as mean±standard deviation.

[2] = in water; cited from earlier work
fibroblast L929 cells = test: Cytotoxicity test (MTS assay) of lock-solution-filled silicone tubes; assay type: cell-based, mouse; conditions: 24-h incubation of L929 cells with silicone tubes filled with the lock solution
Description: L929 murine fibroblast cells were suspended in complete media (DMEM with 1% penicillin/streptomycin and 10% FBS) before being seeded in a 24-well plate at a concentration of 5×10^5 cells per well. After 24 h of incubation, the attached cells in each well were incubated in fresh media containing a sterilized 1-cm silicone tube (HelixMark® 60-011-07) filled with a lock solution with buffer, GSNO, or GSNO-αCD and with both ends sealed. MTS assays were performed following the manufacturer's procedure after an additional 24-h incubation. Absorbance at 490 nm was measured by a Cytation 3 imaging plate reader (Biotek).

| Compound | stabilization effect on GSNO (remaining GSNO after 48 h) [1] | order of enhancement of GSNO stability (reduced decomposition reactivity) by the host CD [1] | further results |
| --- | --- | --- | --- |
| 2-hydroxypropyl alpha cyclodextrin [2-hydroxypropyl αCD] | significant stabilization effect |  |  |
| CC(=O)N[C@H](C(=O)O)C(C)(C)SN=O (racemic) [S-Nitroso-N-acetylpenicillamine] |  |  | aqueous solubility [2]: 2.1 mg/mL and < 0.01 M |
| CC(O)COC[C@H]1O[C@@H]2O[C@H]3[C@H](O)[C@@H](O)[C@@H](O[C@H]4[C@H](O)[C@@H](O)[C@@H](O[C@H]5[C@H](O)[C@@H](O)[C@@H](O[C@H]6[C@H](O)[C@@H](O)[C@@H](O[C@H]7[C@H](O)[C@@H](O)[C@@H](O[C@H]8[C@H](O)[C@@H](O)[C@@H](O[C@H]1[C@H](O)[C@H]2O)O[C@@H]8COCC(C)O)O[C@@H]7COCC(C)O)O[C@@H]6COCC(C)O)O[C@@H]5COCC(C)O)O[C@@H]4COCC(C)O)O[C@@H]3COCC(C)O (stereo partly drawn) [HP βCD, 2-hydroxypropyl βCD] |  | αCD>γCD>HP βCD | order of enhancement of GSNO stability (reduced decomposition reactivity) by the host CD ([1]; listed as hydroxypropyl βCD): αCD>γCD>hydroxypropyl βCD |
| OC[C@H]1O[C@@H]2O[C@H]3[C@H](O)[C@@H](O)[C@@H](O[C@H]4[C@H](O)[C@@H](O)[C@@H](O[C@H]5[C@H](O)[C@@H](O)[C@@H](O[C@H]6[C@H](O)[C@@H](O)[C@@H](O[C@H]7[C@H](O)[C@@H](O)[C@@H](O[C@H]1[C@H](O)[C@H]2O)O[C@@H]7CO)O[C@@H]6CO)O[C@@H]5CO)O[C@@H]4CO)O[C@@H]3CO [αCD, alpha cyclodextrin] | best | αCD>γCD>hydroxypropyl βCD; also recorded: αCD>γCD>HP βCD | cytotoxicity / cell viability (MTS) (fibroblast L929 cells): no difference in the cell viability |
| OC[C@H]1O[C@@H]2O[C@H]3[C@H](O)[C@@H](O)[C@@H](O[C@H]4[C@H](O)[C@@H](O)[C@@H](O[C@H]5[C@H](O)[C@@H](O)[C@@H](O[C@H]6[C@H](O)[C@@H](O)[C@@H](O[C@H]7[C@H](O)[C@@H](O)[C@@H](O[C@H]8[C@H](O)[C@@H](O)[C@@H](O[C@H]9[C@H](O)[C@@H](O)[C@@H](O[C@H]1[C@H](O)[C@H]2O)O[C@@H]9CO)O[C@@H]8CO)O[C@@H]7CO)O[C@@H]6CO)O[C@@H]5CO)O[C@@H]4CO)O[C@@H]3CO [γCD, gamma cyclodextrin] |  | αCD>γCD>hydroxypropyl βCD; also recorded: αCD>γCD>HP βCD |  |
| methyl alpha cyclodextrin [methyl αCD] | significant stabilization effect |  |  |
